pIC50: −log10 of the molar value. Activity calls are given as the source filed them. The rule behind the calls is not given here.
Tests used:
Mus musculus = experiment: Analgesic activity in intracerebrally dosed mouse assessed as increase in time course of latency for thermal stimulation by hotplate test; type: functional, organism-based
Blood [1] = experiment: Inhibition of LPS-induced TNFalpha production in rat whole blood at 12.5 to 50 uM by ELISA; type: functional, tissue-based
Blood [2] = experiment: Inhibition of LPS-induced IL2 production in rat whole blood at 12.5 to 50 uM by ELISA; type: functional, tissue-based
Blood [3] = experiment: Inhibition of LPS-induced IL6 production in rat whole blood at 12.5 to 50 uM by ELISA; type: functional, tissue-based
[4] = biological target: Transient receptor potential cation channel subfamily V member 1 (Rattus norvegicus, UniProt O35433); experiment: Antagonist activity at TRPV1 in rat DRG neuron assessed as inhibition of calcium uptake; type: functional
Sequence of Transient receptor potential cation channel subfamily V member 1 (O35433 whole entry): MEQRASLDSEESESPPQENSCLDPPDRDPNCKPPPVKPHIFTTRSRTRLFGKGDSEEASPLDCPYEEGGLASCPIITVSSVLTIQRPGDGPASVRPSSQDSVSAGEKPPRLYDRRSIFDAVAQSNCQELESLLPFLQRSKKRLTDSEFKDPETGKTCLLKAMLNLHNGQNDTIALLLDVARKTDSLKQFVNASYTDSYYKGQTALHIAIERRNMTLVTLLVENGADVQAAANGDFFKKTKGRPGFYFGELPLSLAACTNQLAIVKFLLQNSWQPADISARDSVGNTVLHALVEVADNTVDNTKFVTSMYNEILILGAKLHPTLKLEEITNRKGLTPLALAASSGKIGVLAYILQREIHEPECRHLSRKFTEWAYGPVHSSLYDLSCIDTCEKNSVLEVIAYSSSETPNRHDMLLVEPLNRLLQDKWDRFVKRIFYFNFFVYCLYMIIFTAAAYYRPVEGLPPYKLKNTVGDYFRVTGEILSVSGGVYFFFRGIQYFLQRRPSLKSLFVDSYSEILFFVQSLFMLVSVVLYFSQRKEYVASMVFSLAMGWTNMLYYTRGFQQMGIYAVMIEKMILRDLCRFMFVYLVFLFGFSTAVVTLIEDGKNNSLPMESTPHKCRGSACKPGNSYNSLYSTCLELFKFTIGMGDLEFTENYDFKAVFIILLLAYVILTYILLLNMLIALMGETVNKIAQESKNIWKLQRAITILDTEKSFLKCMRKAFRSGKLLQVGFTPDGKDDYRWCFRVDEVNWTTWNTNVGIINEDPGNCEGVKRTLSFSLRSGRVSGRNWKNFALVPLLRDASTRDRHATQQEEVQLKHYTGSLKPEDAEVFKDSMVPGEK

Compound | Activity (Mus musculus) | Activity (Blood [1]) | Activity (Blood [2]) | Activity (Blood [3]) | pIC50 [4]
CC(=O)OCC(Cc1ccccc1)NC(=O)C(Cc1ccccc1)NC(=O)c1ccccc1 (configuration not stated) | Dose-dependent effect | Active | Active | Active | –
O=C(NCc1ccccc1)NCc1ccccc1 | Dose-dependent effect | – | Active | – | 8.00

Reference: ChEMBL document CHEMBL1152828, “Rare dipeptide and urea derivatives from roots of Moringa oleifera as potential anti-inflammatory and antinociceptive agents” (Eur J Med Chem, 2009)
